Results from patent publication US20150051283A1, “COMPOSITION AND METHOD FOR INHIBITION OF PKNG FROM MYCOBACTERIUM TUBERCULOSIS” (priority 2013, published 2015).
pIC50: −log10 of the molar value.

Columns and labels:
Assay type in all cases: biochemical
PknG [1] = molecular target: T1, PknG (Mycobacterium tuberculosis, UniProt P9WI73)
T1 construct: Full-length PknG was overexpressed in Escherichia coli BL21(DE3) cells; made in house; host or cells: Escherichia coli BL21(DE3)

PknG [2] = molecular target: T1, PknG; experiment: Reversibility of PknG inhibition by thiol reagents (DTT, GSH); conditions: for effect of thiol reagent per se on control PknG kinase activity: 42 mM DTT or 24 mM GSH
PknG [3] = molecular target: T1, PknG; experiment: Time course of PknG inhibition, Kinase Glo Plus luminescent kinase assay; conditions: PknG 10 μM, 50 μM OA-NO2, pre-incubation 0 to 30 min, 25° C
Procedure: (§1) FIGS. 4A-4D are a series of graphs depicting PknG kinase activity inhibition by OA-NO2, in which FIG. 4A depicts GarA phosphorylation by PknG by linear MALDI-TOF mass spectrum of: GarA (m/z 17145, dashed line), GarA phosphorylated by PknG using a molar ratio PknG:GarA of 1:20 (m/z 17222, grey line) and GarA phosphorylated by PknG pretreated with 50 μM OA-NO2 for 10 minutes (m/z 17143, black line), FIG. 4B is a series of three panels depicting PknG autophosphorylation with an upper panel illustrating linear MALDI-TOF spectrum of native PknG after tryptic digestion showing basal autophoshporylation pattern. Unphosphorylated peptide (m/z 5395.8), monophosphorylated (m/z 5475.4) and diphosphorylated species (m/z 5555.1) are detected as expected, a middle panel depicting linear MALDI-TOF spectrum of PknG after incubation with ATP and Mn^2+ and further typtic digestion (autophoshorylation positive control). […] After 10 minutes of incubation enzyme activities were determined. Samples were analyzed in triplicates; and FIG. 4D depicts time dependent inhibition of PknG by OA-NO2. […] At the indicated time points aliquots of control and treated PknG were removed, and enzyme inhibition was determined using Kinase Glo® by comparison with control activity. Samples were analyzed in triplicates. […]

PknG [4] = molecular target: T1, PknG; experiment: PknG autophosphorylation (MALDI-TOF MS of tryptic phosphopeptides); conditions: 30 μM, 10 min before autophosphorylation reaction
Procedure: as §1

PknG Rbx domain = molecular target: T2, PknG Rbx domain (Mycobacterium tuberculosis, UniProt P9WI73); experiment: Iron release from Rbx domain of PknG (BPS spectrophotometric determination); conditions: 50 μM of OA-NO2
T2 construct: Full-length PknG was overexpressed in Escherichia coli BL21(DE3) cells; made in house; host or cells: Escherichia coli BL21(DE3)
T2 sequence (P9WI73 whole entry, the tested form may be a part): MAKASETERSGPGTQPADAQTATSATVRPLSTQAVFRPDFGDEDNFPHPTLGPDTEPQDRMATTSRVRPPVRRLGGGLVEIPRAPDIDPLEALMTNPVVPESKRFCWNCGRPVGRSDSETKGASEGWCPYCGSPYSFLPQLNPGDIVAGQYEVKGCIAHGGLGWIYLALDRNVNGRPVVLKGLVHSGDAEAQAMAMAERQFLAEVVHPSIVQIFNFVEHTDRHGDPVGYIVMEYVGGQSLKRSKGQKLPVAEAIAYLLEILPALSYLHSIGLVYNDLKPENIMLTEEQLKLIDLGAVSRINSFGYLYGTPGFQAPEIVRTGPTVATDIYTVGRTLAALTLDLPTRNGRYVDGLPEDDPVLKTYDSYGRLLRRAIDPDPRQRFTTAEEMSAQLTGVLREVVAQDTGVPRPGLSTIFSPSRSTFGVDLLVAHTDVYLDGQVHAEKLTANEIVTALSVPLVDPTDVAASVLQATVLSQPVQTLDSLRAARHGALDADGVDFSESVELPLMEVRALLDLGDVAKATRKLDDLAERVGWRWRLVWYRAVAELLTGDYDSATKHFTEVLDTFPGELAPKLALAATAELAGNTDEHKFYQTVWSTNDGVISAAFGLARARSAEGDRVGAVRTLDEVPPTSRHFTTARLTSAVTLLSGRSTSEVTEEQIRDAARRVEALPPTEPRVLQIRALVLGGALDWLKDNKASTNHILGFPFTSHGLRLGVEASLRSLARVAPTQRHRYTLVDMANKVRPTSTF

T1 sequence (P9WI73 whole entry): as the sequence (P9WI73 whole entry, the tested form may be a part) above

Compound: NC(=O)CI [IAM, iodoacetamide, reference compound]
- effect on kinase activity (PknG [1]; IAM treatment (up to 150 μM, PknG 10 μM), only free Cys156 modified): without affecting kinase activity

Compound: CCCCCCCCC=CCCCCCCCC(=O)O [oleic acid, 9-octadecenoic acid, reference compound]
- effect on kinase activity (control) (PknG [1]; equivalent concentrations to OA-NO2, data not shown): no effect

Compound: O[C@@H](CS)[C@@H](O)CS [DTT]
- effect of thiol reagent per se on control PknG kinase activity (PknG [2]): no effect

Compound: 9- and 10-nitro-octadeca-9-cis-enoic acid [OA-NO2]
- ability to phosphorylate GarA (PknG [1]; 30 μM, molar ratio OA-NO2:PknG 3:1, 10 minutes of preincubation): clearly decreased
- pIC50 (PknG [1]; PknG 8 μM, OA-NO2 0 to 80 μM, 10 min pre-incubation, 70 mM ammonium bicarbonate pH 8.0, 25° C, read-out: concentration at which 50% of enzyme inhibition was reached): 4.46
- kinase activity of PknG (PknG [1]; micromolar concentrations, molar excess ranging from 1:1 to 1:3): noticeably inhibited
- effect of OA-NO2 on PknG activity (reversibility) (PknG [2]): irreversible
- kinase activity versus pre-incubation time (PknG [3]): decreased kinase activity in a time-dependent manner
- autocatalytic (autophosphorylation) activity (PknG [4]): inhibited
- iron present at the Rbx domain released (PknG Rbx domain): 70%

Compound: N[C@@H](CCC(=O)N[C@@H](CS)C(=O)NCC(=O)O)C(=O)O [GSH]
- effect of thiol reagent per se on control PknG kinase activity (PknG [2]): no effect
